“Also recorded” adds a separate entry of the source.
System: virus

**Q.** With TRITON-X100 as the substance, how does the “biocidal activity against virus (ability to inactivate a virus)” value read?
**A.** The value was “less biocidal activity; also recorded: less ability to inactivate a virus”.
